# Where two headings read alike, the source gives them in different places.
# What was measured:
# HCT-15 (Colon Cancer) = test: NCI 60 one dose screen; format: cell-based, human
# NCI-H522 (NSCLC) = test: NCI 60 one dose screen; format: cell-based, human; conditions: Non-small Cell Lung Cancer
# RPMI-8226 = test: NCI 60 five dose screen
# glioblastoma (SF-295) = test: NCI 60 five dose screen; conditions: SF-295 (CNS Cancer), five dose
# gliosarcoma (SF-539) = test: NCI 60 five dose screen; conditions: SF-539 (CNS Cancer), five dose
# SF-295 = test: NCI 60 one dose screen; format: cell-based, human; conditions: one dose; CNS Cancer; SF-295
# [1] = test system: 60 different human tumor cell lines; conditions: for GI50 / TGI: five dose
# [2] = RPMI-8226 (Leukemia), five dose
# [3] = A549/ATCC (Non-small Cell Lung Cancer)
# [4] = HOP-62 (Non-small Cell Lung Cancer)
# [5] = HOP-92 (Non-small Cell Lung Cancer)
# [6] = MDA-MB-231/ATCC (Breast Cancer)
# [7] = NCI-H23 (Non-small Cell Lung Cancer)
# [8] = NCI-H322M (Non-small Cell Lung Cancer)
# [9] = NCI-H460 (Non-small Cell Lung Cancer)
# [10] = NCI-H522 (Non-small Cell Lung Cancer)
substance,measurement,setting,value
"(1S,2R,13R,14S,18S)-7-(2,4-dimethylanilino)-2,18-dimethyl-6-thia-8-azapentacyclo[11.7.0.02,10.05,9.014,18]icosa-5(9),7,10-trien-17-one [IIa.14]",Growth Percent,HCT-15 (Colon Cancer),0.81%
same,Growth Percent,NCI-H522 (NSCLC),24.64%
same,GI50,RPMI-8226; [2],2430 nM
same,TGI,RPMI-8226; [2],6.25E−6
same,50% growth inhibition (GI50),RPMI-8226; leukemia cell line RPMI-8226,submicromolar
same,CC50,"RPMI-8226; read-out: LC50, RPMI-8226 (Leukemia), five dose",> 100000 nM
same,GI50,glioblastoma (SF-295),1810 nM
same,TGI,glioblastoma (SF-295),4.10E−6
same,GI50,gliosarcoma (SF-539),1620 nM
same,TGI,gliosarcoma (SF-539),3.08E−6
same,CC50,gliosarcoma (SF-539); read-out: LC50,5860 nM
same,Growth Percent,SF-295,63.77%
same,CC50,[1],> 100000 nM
same,GI50,[1]; 786-0 (Renal Cancer),1620 nM
same,TGI,[1]; 786-0 (Renal Cancer),3.07E−6
same,GI50,[1]; A498 (Renal Cancer),2540 nM
same,GI50,[1]; [3],3500 nM
same,TGI,[1]; [3],>1.00E−4
same,GI50,[1]; ACHN (Renal Cancer),2080 nM
same,TGI,[1]; ACHN (Renal Cancer),4.53E−6
same,GI50,[1]; BT-549 (Breast Cancer),1490 nM
same,TGI,[1]; BT-549 (Breast Cancer),2.94E−6
same,GI50,[1]; CAKI-1 (Renal Cancer),2830 nM
same,TGI,[1]; CAKI-1 (Renal Cancer),>1.00E−4
same,GI50,[1]; CCRF-CEM (Leukemia),2450 nM
same,TGI,[1]; CCRF-CEM (Leukemia),>1.00E−4
same,GI50,[1]; COLO 205 (Colon Cancer),2500 nM
same,TGI,[1]; COLO 205 (Colon Cancer),6.54E−6
same,GI50,[1]; DU-145 (Prostate Cancer),2040 nM
same,TGI,[1]; DU-145 (Prostate Cancer),5.18E−6
same,GI50,[1]; EKVX (Non-small Cell Lung Cancer),2130 nM
same,GI50,[1]; HCC-2998 (Colon Cancer),1900 nM
same,TGI,[1]; HCC-2998 (Colon Cancer),3.74E−6
same,GI50,[1]; HCT-15 (Colon Cancer),2680 nM
same,GI50,[1]; HCT-116 (Colon Cancer),1490 nM
same,TGI,[1]; HCT-116 (Colon Cancer),2.85E−6
same,GI50,[1]; HL-60(TB) (Leukemia),2470 nM
same,TGI,[1]; HL-60(TB) (Leukemia),6.03E−6
same,GI50,[1]; [4],2430 nM
same,TGI,[1]; [4],6.92E−6
same,GI50,[1]; [5],1720 nM
same,TGI,[1]; [5],3.86E−6
same,GI50,[1]; HS 578T (Breast Cancer),3750 nM
same,TGI,[1]; HS 578T (Breast Cancer),>1.00E−4
same,GI50,[1]; HT29 (Colon Cancer),2550 nM
same,TGI,[1]; HT29 (Colon Cancer),7.04E−6
same,GI50,[1]; IGROV1 (Ovarian Cancer),2110 nM
same,TGI,[1]; IGROV1 (Ovarian Cancer),5.14E−6
same,GI50,[1]; K-562 (Leukemia),2860 nM
same,TGI,[1]; K-562 (Leukemia),>1.00E−4
same,GI50,[1]; KM12 (Colon Cancer),2780 nM
same,GI50,[1]; LOX IMVI (Melanoma),1640 nM
same,TGI,[1]; LOX IMVI (Melanoma),3.13E−6
same,GI50,[1]; M14 (Melanoma),1850 nM
same,TGI,[1]; M14 (Melanoma),3.79E−6
same,GI50,[1]; MALME-3M (Melanoma),1990 nM
same,TGI,[1]; MALME-3M (Melanoma),5.55E−6
same,GI50,[1]; MCF7 (Breast Cancer),2310 nM
same,TGI,[1]; MCF7 (Breast Cancer),>1.00E−4
same,GI50,[1]; [6],2330 nM
same,TGI,[1]; [6],7.92E−6
same,GI50,[1]; MDA-MB-435 (Melanoma),3020 nM
same,TGI,[1]; MDA-MB-435 (Melanoma),>1.00E−4
same,GI50,[1]; MDA-MB-468 (Breast Cancer),1930 nM
same,TGI,[1]; MDA-MB-468 (Breast Cancer),3.93E−6
same,GI50,[1]; MOLT-4 (Leukemia),2490 nM
same,TGI,[1]; MOLT-4 (Leukemia),>1.00E−4
same,GI50,[1]; [7],2010 nM
same,TGI,[1]; [7],4.85E−6
same,GI50,[1]; NCI-H226 (Non-small Cell Lung Cancer),2350 nM
same,GI50,[1]; [8],4280 nM
same,TGI,[1]; [8],>1.00E−4
same,GI50,[1]; [9],2700 nM
same,TGI,[1]; [9],8.39E−6
same,GI50,[1]; [10],1680 nM
same,TGI,[1]; [10],3.28E−6
same,GI50,[1]; NCI/ADR-RES (Ovarian Cancer),2900 nM
same,TGI,[1]; NCI/ADR-RES (Ovarian Cancer),>1.00E−4
same,GI50,[1]; OVCAR-3 (Ovarian Cancer),2180 nM
same,TGI,[1]; OVCAR-3 (Ovarian Cancer),5.03E−6
same,GI50,[1]; OVCAR-4 (Ovarian Cancer),2830 nM
same,TGI,[1]; OVCAR-4 (Ovarian Cancer),>1.00E−4
same,GI50,[1]; OVCAR-5 (Ovarian Cancer),2900 nM

# Reference: US20250296953A1, “3,4-THIAZOLO-STEROIDS AND METHODS OF MAKING AND USING THE SAME” (Arkansas State University - Jonesboro, priority 2018, published 2025)
